What was measured:
Test in all cases: KINOMEscan competition binding
Conditions in all cases: compound 10.0 µM
[1] = system: ABL1 (human), P00519 [E255K]
[2] = system: ABL1 (human), P00519 [F317I]
ACVRL1 (human) = ACVRL1 (human) (UniProt P37023)
ADCK4 (human) = ADCK4 (human) (UniProt Q96D53)
CAMK4 (human) = CAMK4 (human) (UniProt Q16566)
CDK2 (human) = CDK2 (human) (UniProt P24941)
CDKL2 (human) = CDKL2 (human) (UniProt Q92772)
CSK (human) = CSK (human) (UniProt P41240)
EPHB3 (human) = EPHB3 (human) (UniProt P54753)
ERBB4 (human) = ERBB4 (human) (UniProt Q15303)
ERN1 (human) = ERN1 (human) (UniProt O75460)
[3] = system: FGFR3 (human), P22607 [G697C]
FYN (human) = FYN (human) (UniProt P06241)
GRK1 (human) = GRK1 (human) (UniProt Q15835)
GRK7 (human) = GRK7 (human) (UniProt Q8WTQ7)
IRAK3 (human) = IRAK3 (human) (UniProt Q9Y616)
[4] = biological target: JAK1 JH2 pseudokinase (human) (UniProt P23458)
[5] = system: KIT (human), P10721 [V559D/V654A]
LIMK2 (human) = LIMK2 (human) (UniProt P53671)
MAP2K1 (human) = MAP2K1 (human) (UniProt Q02750)
MAP3K1 (human) = MAP3K1 (human) (UniProt Q13233)
MAP3K13 (human) = MAP3K13 (human) (UniProt O43283)
MAP3K3 (human) = MAP3K3 (human) (UniProt Q99759)
MAPK1 (human) = MAPK1 (human) (UniProt P28482)
MAPK14 (human) = MAPK14 (human) (UniProt Q16539)
MAPK15 (human) = MAPK15 (human) (UniProt Q8TD08)
MERTK (human) = MERTK (human) (UniProt Q12866)
MST1R (human) = MST1R (human) (UniProt Q04912)
MYLK3 (human) = MYLK3 (human) (UniProt Q32MK0)
MYO3B (human) = MYO3B (human) (UniProt Q8WXR4)
PIM1 (human) = PIM1 (human) (UniProt P11309)
PRKAA1 (human) = PRKAA1 (human) (UniProt Q13131)
PRKD2 (human) = PRKD2 (human) (UniProt Q9BZL6)
SLK (human) = SLK (human) (UniProt Q9H2G2)
SRPK2 (human) = SRPK2 (human) (UniProt P78362)
STK33 (human) = STK33 (human) (UniProt Q9BYT3)
TBK1 (human) = TBK1 (human) (UniProt Q9UHD2)
TXK (human) = TXK (human) (UniProt P42681)
[6] = biological target: TYK2 JH1 catalytic (human) (UniProt P29597)
ULK1 (human) = ULK1 (human) (UniProt O75385)
ZAP70 (human) = ZAP70 (human) (UniProt P43403)

MST1R (human), sequence (Q04912 whole entry, looked up): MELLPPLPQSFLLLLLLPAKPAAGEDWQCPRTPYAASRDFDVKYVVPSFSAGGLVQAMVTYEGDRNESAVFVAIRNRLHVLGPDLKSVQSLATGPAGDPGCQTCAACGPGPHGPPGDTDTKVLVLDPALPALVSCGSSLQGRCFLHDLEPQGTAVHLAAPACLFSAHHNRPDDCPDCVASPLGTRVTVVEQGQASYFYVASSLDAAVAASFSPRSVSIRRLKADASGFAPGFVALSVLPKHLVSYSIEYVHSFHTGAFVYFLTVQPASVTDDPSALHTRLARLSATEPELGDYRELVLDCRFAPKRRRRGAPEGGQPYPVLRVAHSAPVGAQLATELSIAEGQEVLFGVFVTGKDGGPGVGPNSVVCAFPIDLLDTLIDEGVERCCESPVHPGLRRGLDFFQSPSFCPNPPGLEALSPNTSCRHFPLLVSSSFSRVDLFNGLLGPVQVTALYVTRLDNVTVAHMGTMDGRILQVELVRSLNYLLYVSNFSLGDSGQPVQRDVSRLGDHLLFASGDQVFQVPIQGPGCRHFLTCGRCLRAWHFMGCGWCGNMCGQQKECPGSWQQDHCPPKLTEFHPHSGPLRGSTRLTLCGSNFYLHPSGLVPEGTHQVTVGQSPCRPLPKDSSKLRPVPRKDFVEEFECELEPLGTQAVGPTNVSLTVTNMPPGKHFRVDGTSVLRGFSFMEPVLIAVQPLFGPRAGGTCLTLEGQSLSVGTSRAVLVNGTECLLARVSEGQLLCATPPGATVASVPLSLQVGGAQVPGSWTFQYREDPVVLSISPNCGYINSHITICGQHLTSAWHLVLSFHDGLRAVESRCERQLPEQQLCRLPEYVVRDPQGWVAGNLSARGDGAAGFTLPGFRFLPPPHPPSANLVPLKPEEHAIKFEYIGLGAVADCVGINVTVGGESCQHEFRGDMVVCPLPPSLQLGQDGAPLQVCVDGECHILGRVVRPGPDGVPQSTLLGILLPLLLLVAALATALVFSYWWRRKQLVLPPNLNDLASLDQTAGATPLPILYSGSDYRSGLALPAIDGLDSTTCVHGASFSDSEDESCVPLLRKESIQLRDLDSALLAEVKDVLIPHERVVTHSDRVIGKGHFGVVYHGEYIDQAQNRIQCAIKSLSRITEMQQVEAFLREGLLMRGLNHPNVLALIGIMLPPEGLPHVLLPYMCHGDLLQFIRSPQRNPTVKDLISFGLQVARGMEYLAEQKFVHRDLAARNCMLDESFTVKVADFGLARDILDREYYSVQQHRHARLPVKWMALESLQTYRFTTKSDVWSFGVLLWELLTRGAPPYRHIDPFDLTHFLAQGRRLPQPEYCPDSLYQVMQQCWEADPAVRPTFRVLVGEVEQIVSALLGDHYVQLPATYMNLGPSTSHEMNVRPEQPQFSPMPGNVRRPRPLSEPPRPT
EPHB3 (human), sequence (P54753 whole entry, looked up): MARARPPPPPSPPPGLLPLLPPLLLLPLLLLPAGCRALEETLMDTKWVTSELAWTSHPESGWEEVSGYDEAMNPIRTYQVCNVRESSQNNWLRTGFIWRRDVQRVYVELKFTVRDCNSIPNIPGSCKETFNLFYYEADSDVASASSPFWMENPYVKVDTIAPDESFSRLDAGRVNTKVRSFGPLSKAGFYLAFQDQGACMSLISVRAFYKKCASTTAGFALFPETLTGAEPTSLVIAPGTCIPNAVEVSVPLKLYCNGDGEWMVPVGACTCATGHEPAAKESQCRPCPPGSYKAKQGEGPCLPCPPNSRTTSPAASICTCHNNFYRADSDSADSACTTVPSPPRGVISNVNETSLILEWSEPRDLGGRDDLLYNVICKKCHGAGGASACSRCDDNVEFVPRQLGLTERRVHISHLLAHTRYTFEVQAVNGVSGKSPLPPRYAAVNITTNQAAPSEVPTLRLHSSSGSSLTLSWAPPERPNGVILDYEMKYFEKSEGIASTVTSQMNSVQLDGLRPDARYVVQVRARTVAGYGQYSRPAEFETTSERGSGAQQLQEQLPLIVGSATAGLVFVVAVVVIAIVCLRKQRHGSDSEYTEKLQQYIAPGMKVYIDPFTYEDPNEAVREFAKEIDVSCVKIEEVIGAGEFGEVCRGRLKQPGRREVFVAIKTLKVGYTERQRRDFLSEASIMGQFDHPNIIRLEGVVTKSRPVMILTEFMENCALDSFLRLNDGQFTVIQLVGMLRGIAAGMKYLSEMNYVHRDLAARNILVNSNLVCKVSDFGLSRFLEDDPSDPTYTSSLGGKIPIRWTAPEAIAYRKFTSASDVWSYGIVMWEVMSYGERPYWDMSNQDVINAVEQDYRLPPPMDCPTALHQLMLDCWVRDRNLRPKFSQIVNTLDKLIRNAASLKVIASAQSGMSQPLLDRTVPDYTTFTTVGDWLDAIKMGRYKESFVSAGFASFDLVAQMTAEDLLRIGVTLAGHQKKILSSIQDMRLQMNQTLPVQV
PIM1 (human), sequence (P11309 whole entry, looked up): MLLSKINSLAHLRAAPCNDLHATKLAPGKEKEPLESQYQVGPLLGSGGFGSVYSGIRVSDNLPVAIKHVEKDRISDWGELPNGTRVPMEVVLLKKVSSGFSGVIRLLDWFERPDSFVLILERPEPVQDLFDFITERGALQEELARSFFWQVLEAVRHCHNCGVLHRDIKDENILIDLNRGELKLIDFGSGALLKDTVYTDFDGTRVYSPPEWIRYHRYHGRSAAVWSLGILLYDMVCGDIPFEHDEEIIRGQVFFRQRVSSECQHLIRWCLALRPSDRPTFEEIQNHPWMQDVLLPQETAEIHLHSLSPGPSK
PRKD2 (human), sequence (Q9BZL6 whole entry, looked up): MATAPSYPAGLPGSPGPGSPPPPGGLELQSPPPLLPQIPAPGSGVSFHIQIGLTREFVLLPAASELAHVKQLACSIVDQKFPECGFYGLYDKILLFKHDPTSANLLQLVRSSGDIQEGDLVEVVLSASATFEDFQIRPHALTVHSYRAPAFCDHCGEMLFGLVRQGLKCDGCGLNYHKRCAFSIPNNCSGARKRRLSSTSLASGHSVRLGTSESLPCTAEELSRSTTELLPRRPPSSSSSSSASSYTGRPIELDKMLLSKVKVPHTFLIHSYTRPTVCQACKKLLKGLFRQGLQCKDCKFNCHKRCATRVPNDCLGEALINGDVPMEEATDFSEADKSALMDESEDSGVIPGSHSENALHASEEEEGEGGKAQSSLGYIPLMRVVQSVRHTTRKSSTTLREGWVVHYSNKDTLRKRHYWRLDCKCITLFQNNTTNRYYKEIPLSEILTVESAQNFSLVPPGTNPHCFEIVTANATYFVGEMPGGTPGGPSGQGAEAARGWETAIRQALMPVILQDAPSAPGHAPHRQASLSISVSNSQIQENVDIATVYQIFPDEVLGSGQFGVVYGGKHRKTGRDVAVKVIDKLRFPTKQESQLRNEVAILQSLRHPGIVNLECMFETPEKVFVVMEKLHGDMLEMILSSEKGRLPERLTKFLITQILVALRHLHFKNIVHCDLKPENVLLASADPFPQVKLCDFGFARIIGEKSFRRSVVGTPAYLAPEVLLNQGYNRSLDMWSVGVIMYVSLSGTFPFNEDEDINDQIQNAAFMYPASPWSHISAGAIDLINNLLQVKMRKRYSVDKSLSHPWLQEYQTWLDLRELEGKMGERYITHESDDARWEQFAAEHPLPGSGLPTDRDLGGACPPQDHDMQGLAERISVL
MAPK15 (human), sequence (Q8TD08 whole entry, looked up): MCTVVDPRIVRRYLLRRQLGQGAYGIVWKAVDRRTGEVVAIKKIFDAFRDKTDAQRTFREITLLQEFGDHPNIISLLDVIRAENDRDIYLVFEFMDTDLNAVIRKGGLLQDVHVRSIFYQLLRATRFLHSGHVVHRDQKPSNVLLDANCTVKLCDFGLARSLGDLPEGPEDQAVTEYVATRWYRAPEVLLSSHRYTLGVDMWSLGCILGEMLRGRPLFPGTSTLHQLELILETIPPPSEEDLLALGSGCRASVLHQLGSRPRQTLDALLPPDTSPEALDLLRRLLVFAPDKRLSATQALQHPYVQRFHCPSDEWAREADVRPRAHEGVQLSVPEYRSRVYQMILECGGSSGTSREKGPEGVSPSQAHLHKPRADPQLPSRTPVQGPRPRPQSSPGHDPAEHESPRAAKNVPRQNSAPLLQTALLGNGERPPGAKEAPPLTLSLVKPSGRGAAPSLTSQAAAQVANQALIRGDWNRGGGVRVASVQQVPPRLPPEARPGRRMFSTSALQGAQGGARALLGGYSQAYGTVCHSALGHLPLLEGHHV
GRK7 (human), sequence (Q8WTQ7 whole entry, looked up): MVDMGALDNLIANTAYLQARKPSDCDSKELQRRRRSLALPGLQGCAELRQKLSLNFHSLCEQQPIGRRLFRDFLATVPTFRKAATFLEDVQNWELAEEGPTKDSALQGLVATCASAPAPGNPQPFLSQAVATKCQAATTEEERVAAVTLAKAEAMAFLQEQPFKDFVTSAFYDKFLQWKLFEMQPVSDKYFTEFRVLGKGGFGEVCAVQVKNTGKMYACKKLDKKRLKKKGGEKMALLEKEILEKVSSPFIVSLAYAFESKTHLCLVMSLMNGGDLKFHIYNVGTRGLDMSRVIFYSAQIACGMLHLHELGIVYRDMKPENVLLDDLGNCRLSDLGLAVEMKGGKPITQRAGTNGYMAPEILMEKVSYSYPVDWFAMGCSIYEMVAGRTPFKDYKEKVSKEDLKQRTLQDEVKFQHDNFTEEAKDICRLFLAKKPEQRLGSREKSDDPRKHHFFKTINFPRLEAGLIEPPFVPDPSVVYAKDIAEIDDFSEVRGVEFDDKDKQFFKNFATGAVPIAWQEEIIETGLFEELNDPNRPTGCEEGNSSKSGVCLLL
MAPK1 (human), sequence (P28482 whole entry, looked up): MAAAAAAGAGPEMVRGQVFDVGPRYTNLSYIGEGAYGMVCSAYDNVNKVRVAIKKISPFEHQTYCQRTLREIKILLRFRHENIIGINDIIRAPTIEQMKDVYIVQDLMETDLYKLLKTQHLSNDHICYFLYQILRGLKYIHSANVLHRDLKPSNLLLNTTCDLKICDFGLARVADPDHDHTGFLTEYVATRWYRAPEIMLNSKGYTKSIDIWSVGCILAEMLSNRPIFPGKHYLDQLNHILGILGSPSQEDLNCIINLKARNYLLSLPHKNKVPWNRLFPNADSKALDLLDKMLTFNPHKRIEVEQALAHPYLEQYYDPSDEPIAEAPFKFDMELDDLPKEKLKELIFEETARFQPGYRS

Cn1cc(C2=C(c3ccc(Cl)cc3Cl)C(=O)NC2=O)c2ccccc21
kinase still bound, per cent of control [1]: 100%
kinase still bound, per cent of control [2]: 100%
kinase still bound, per cent of control (ACVRL1 (human)): 100%
kinase still bound, per cent of control (ADCK4 (human)): 100%
kinase still bound, per cent of control (CAMK4 (human)): 98%
kinase still bound, per cent of control (CDK2 (human)): 7.4%
kinase still bound, per cent of control (CDKL2 (human)): 87%
kinase still bound, per cent of control (CSK (human)): 100%
kinase still bound, per cent of control (EPHB3 (human)): 100%
kinase still bound, per cent of control (ERBB4 (human)): 100%
kinase still bound, per cent of control (ERN1 (human)): 100%
kinase still bound, per cent of control [3]: 100%
kinase still bound, per cent of control (FYN (human)): 96%
kinase still bound, per cent of control (GRK1 (human)): 83%
kinase still bound, per cent of control (GRK7 (human)): 51%
kinase still bound, per cent of control (IRAK3 (human)): 100%
kinase still bound, per cent of control [4]: 82%
kinase still bound, per cent of control [5]: 83%
kinase still bound, per cent of control (LIMK2 (human)): 96%
kinase still bound, per cent of control (MAP2K1 (human)): 100%
kinase still bound, per cent of control (MAP3K1 (human)): 100%
kinase still bound, per cent of control (MAP3K13 (human)): 84%
kinase still bound, per cent of control (MAP3K3 (human)): 88%
kinase still bound, per cent of control (MAPK1 (human)): 100%
kinase still bound, per cent of control (MAPK14 (human)): 72%
kinase still bound, per cent of control (MAPK15 (human)): 1.7%
kinase still bound, per cent of control (MERTK (human)): 100%
kinase still bound, per cent of control (MST1R (human)): 100%
kinase still bound, per cent of control (MYLK3 (human)): 90%
kinase still bound, per cent of control (MYO3B (human)): 100%
kinase still bound, per cent of control (PIM1 (human)): 22%
kinase still bound, per cent of control (PRKAA1 (human)): 61%
kinase still bound, per cent of control (PRKD2 (human)): 99%
kinase still bound, per cent of control (SLK (human)): 8.7%
kinase still bound, per cent of control (SRPK2 (human)): 83%
kinase still bound, per cent of control (STK33 (human)): 100%
kinase still bound, per cent of control (TBK1 (human)): 90%
kinase still bound, per cent of control (TXK (human)): 100%
kinase still bound, per cent of control [6]: 100%
kinase still bound, per cent of control (ULK1 (human)): 96%
kinase still bound, per cent of control (ZAP70 (human)): 100%

O=C1Nc2cc(Br)ccc2/C1=C1/Nc2ccccc2/C1=N\O
kinase still bound, per cent of control [1]: 11%
kinase still bound, per cent of control [2]: 4.2%
kinase still bound, per cent of control (ACVRL1 (human)): 100%
kinase still bound, per cent of control (ADCK4 (human)): 57%
kinase still bound, per cent of control (CAMK4 (human)): 100%
kinase still bound, per cent of control (CDK2 (human)): 14%
kinase still bound, per cent of control (CDKL2 (human)): 6.1%
kinase still bound, per cent of control (CSK (human)): 56%
kinase still bound, per cent of control (EPHB3 (human)): 100%
kinase still bound, per cent of control (ERBB4 (human)): 46%
kinase still bound, per cent of control (ERN1 (human)): 51%
kinase still bound, per cent of control [3]: 14%
kinase still bound, per cent of control (FYN (human)): 1.6%
kinase still bound, per cent of control (GRK1 (human)): 60%
kinase still bound, per cent of control (GRK7 (human)): 58%
kinase still bound, per cent of control (IRAK3 (human)): 26%
kinase still bound, per cent of control [4]: 48%
kinase still bound, per cent of control [5]: 0.9%
kinase still bound, per cent of control (LIMK2 (human)): 92%
kinase still bound, per cent of control (MAP2K1 (human)): 37%
kinase still bound, per cent of control (MAP3K1 (human)): 100%
kinase still bound, per cent of control (MAP3K13 (human)): 54%
kinase still bound, per cent of control (MAP3K3 (human)): 38%
kinase still bound, per cent of control (MAPK1 (human)): 100%
kinase still bound, per cent of control (MAPK14 (human)): 92%
kinase still bound, per cent of control (MAPK15 (human)): 29%
kinase still bound, per cent of control (MERTK (human)): 0.4%
kinase still bound, per cent of control (MST1R (human)): 100%
kinase still bound, per cent of control (MYLK3 (human)): 0.4%
kinase still bound, per cent of control (MYO3B (human)): 100%
kinase still bound, per cent of control (PIM1 (human)): 62%
kinase still bound, per cent of control (PRKAA1 (human)): 4%
kinase still bound, per cent of control (PRKD2 (human)): 100%
kinase still bound, per cent of control (SLK (human)): 44%
kinase still bound, per cent of control (SRPK2 (human)): 5.8%
kinase still bound, per cent of control (STK33 (human)): 11%
kinase still bound, per cent of control (TBK1 (human)): 32%
kinase still bound, per cent of control (TXK (human)): 15%
kinase still bound, per cent of control [6]: 3%
kinase still bound, per cent of control (ULK1 (human)): 7.3%
kinase still bound, per cent of control (ZAP70 (human)): 90%

COc1ccc(CNC(=O)Nc2ncc([N+](=O)[O-])s2)cc1
kinase still bound, per cent of control [1]: 100%
kinase still bound, per cent of control [2]: 100%
kinase still bound, per cent of control (ACVRL1 (human)): 97%
kinase still bound, per cent of control (ADCK4 (human)): 100%
kinase still bound, per cent of control (CDK2 (human)): 74%
kinase still bound, per cent of control (CDKL2 (human)): 40%
kinase still bound, per cent of control (CSK (human)): 100%
kinase still bound, per cent of control (EPHB3 (human)): 100%
kinase still bound, per cent of control (ERBB4 (human)): 100%
kinase still bound, per cent of control (ERN1 (human)): 100%
kinase still bound, per cent of control [3]: 100%
kinase still bound, per cent of control (FYN (human)): 87%
kinase still bound, per cent of control (GRK1 (human)): 100%
kinase still bound, per cent of control (GRK7 (human)): 100%
kinase still bound, per cent of control (IRAK3 (human)): 100%
kinase still bound, per cent of control [4]: 89%
kinase still bound, per cent of control [5]: 88%
kinase still bound, per cent of control (LIMK2 (human)): 100%
kinase still bound, per cent of control (MAP2K1 (human)): 100%
kinase still bound, per cent of control (MAP3K1 (human)): 100%
kinase still bound, per cent of control (MAP3K13 (human)): 70%
kinase still bound, per cent of control (MAP3K3 (human)): 97%
kinase still bound, per cent of control (MAPK1 (human)): 100%
kinase still bound, per cent of control (MAPK14 (human)): 100%
kinase still bound, per cent of control (MAPK15 (human)): 51%
kinase still bound, per cent of control (MERTK (human)): 100%
kinase still bound, per cent of control (MST1R (human)): 100%
kinase still bound, per cent of control (MYLK3 (human)): 52%
kinase still bound, per cent of control (MYO3B (human)): 100%
kinase still bound, per cent of control (PIM1 (human)): 75%
kinase still bound, per cent of control (PRKAA1 (human)): 100%
kinase still bound, per cent of control (PRKD2 (human)): 93%
kinase still bound, per cent of control (SLK (human)): 100%
kinase still bound, per cent of control (SRPK2 (human)): 81%
kinase still bound, per cent of control (STK33 (human)): 75%
kinase still bound, per cent of control (TBK1 (human)): 100%
kinase still bound, per cent of control (TXK (human)): 100%
kinase still bound, per cent of control [6]: 100%
kinase still bound, per cent of control (ULK1 (human)): 100%
kinase still bound, per cent of control (ZAP70 (human)): 100%
